Source: patent publication US20220023317A1, “PREVENTING OR MITIGATING CHEMOTHERAPY INDUCED ALOPECIA USING VITAMIN D” (Berg LLC, priority 2013, published 2022)

Legend:
[1] = tested on: Long Evans Rats; experiment: Alopecia in chloroleukemic Long Evans rats receiving multi-course chemotherapy; assay type: in vivo, rat; conditions: for extent of alopecia (grade): all rats
Excerpt: Animals were then randomized in four groups.
Treatments were started on day 6 after birth.
Unused preparations were disposed of.

[2] = tested on: Sprague Dawley rats; experiment: Neonatal rat model of CIA, 1,25(OH)2D3 in ethanol; assay type: in vivo; conditions: 0.2 μg in 150 μL ethanol topical, days 5-10; CTX 35 mg/kg; all 10 animals
Excerpt: Neonatal Rat model and PCA model. Sprague Dawley rats were purchased from Charles River Laboratories (Wilmington, Mass.). C3H/HeJ mouse were purchased from Jackson Laboratories (Bar Harbour, Me.).Rodents were housed and fed according to NIH guidelines. For experiments involving chemotherapy, cyclophosphamide was purchased from Mead Johnson (Evansville, Ind.) and Etoposide was obtained from Bristol-Myers (Evansville, Ind.). 1,25(OH)2D3 powder was a gift from Dr. Uskokovic (Hoffman-La Roche, Nutley, N.J.). For experiments involving C3H/HeJ mice, 1,25(OH)2D3 was purchased from Sigma (St. Louis, Mo.). Topical application of 1,25(OH)2D3. 1,25(OH)2D3 was dissolved in absolute ethanol and applied topically with an applicator. Control animals were similarly treated with vehicle only. […] For CIA experiments, 1,25(OH)2D3 was given daily beginning on day 5 after birth and ending on day 10. […] For CIA and PCA, the experimental group was treated with 0.2 μg of 1,25(OH)2D3 in 150 μL of absolute ethanol applied topically over the head and neck. In both instances, the control group received ethanol vehicle only. Cyclophosphamide (35 mg/kg) was given intraperitoneally for one day only. […] Both chemotherapies were started at 11 days of age. Alopecia was recorded on the tenth day after the first dose of chemotherapy.

[3] = Quantification of calcitriol in ex vivo porcine skin layers; set-up: species or system minipig
Excerpt: The skin sections were weighed and the weight recorded.

[4] = tested on: NIH-3T3; experiment: Cell growth / viability assay; assay type: cell-based
[5] = tested on: PC-3; experiment: Cell growth / viability assay; assay type: cell-based; conditions: 0.1 μg/mL calcitriol for two passages
Method: In these experiments, a selected commercial drug was serially diluted, starting at a concentration 4-times higher than the final desired concentration for cell incubation. […] The drug treatment period was usually three days. At the end of the three days, the background OD of the 96-well plate was read at 280 nm, before 20 μL of the “Substrate Cell Titer 96 Aqueous One Solution Reagent” (Promega) was added to each well. […] The net OD increase was calculated by subtracting the pre-substrate OD reading. The impact of the drug on the cells was calculated by comparing the OD at different concentrations in relation to the OD of the control wells (without the drug). The results of the Net OD as a function of drug concentration was plotted and used to determine ED50 values. […] Then these pretreated cells were utilized to set up the cell based assay.

[6] = tested on: HEKa cells; experiment: Real-time PCR Neuroscience and Ion Channels array, calcitriol-treated HEKa; assay type: cell-based, human; conditions: 0.1 μg/mL; for KCNB2 mRNA regulation pattern: full cell: upregulated until 24 hours
Method: (§1) Changes in mRNA levels were evaluated using real-time PCR quantification to assess mRNA levels in preselected subsets containing 80 pathway specific targets (see Appendix). The PCR array analysis utilized two groups of genes—those related to Heat Shock Proteins (SABiosciences), and those related to Neuroscience Ion Channels and Transporters (SABioscience). Cell culture: Primary human epidermal keratinocytes (HEKa) were maintained in Epilife Medium (Cascade Biologics, Inc., Portland Oreg.) along with Human Keratinocyte Growth Supplement (Cascade Biologics, Inc., Portland Oreg.). […] D3 treatment of HEKa cells: […] Vehicle control group of cells were treated with 5 mL media containing 1 μL of ethanol. Cells were harvested 3, 6, 16, 24, 48, or 72 hours after the start of the treatment. RNA isolation: Cells were lysed for RNA isolation at different treatment times using the RNeasy Mini kit (Qiagen, Inc., Valencia Calif.) following the manufacturer's instructions. RNA was quantified by measuring optical density at 260 nm. First Strand Synthesis: […] Real-time PCR: Products from the first strand synthesis were diluted with water, mixed with the SYBR green master mix (SABiosciences., Frederick Md.) and loaded onto PCR arrays. Real time PCR was run on the PCR Arrays (Heat Shock Protein Arrays, and Neuroscience and Ion Channel Arrays) (SABiosciences, Frederick Md.) on a Biorad CFX96. Data analyses were performed using the PCR array data analysis software available on the SABiosciences website.

[7] = tested on: HEKa cells; experiment: Real-time PCR Heat Shock Protein array, calcitriol-treated HEKa; assay type: cell-based, human; conditions: 0.1 μg/mL calcitriol, two independent experiments
Method: as §1

[8] = tested on: squamous cell carcinoma and human prostate cell carcinoma; conditions: 2.5 μg calcitriol 3 doses daily for 3 days, followed by paclitaxel; cited from earlier work
[9] = Preliminary animal toxicology study; assay type: in vivo; conditions: dose of about 100 μg
[10] = Female Minipigs, 10 μg/mL, mean ± SD
[11] = Female Minipigs, 30 μg/mL, mean ± SD
[12] = Male Minipig (1 animal), 100 μg/mL, mean ± SD
[13] = Male Minipigs, 3 μg/mL, mean ± SD
[14] = Male Minipigs, 10 μg/mL, mean ± SD
[15] = Male Minipigs, 30 μg/mL, mean ± SD

C=C1/C(=C\C=C2/CCC[C@]3(C)[C@@H]([C@H](C)CCCC(C)(C)O)CC[C@@H]23)C[C@@H](O)C[C@@H]1O [Calcitriol, (1a.3B.5Z.7E)-9,10-secocholesta-5,7,10(19)-triene-1,3,25-triol]
extent of alopecia (grade) ([1]; ADM + paclitaxel + etoposide, first round): did not exhibit any signs of alopecia
rats with alopecia grade 0 (number) ([1]; ADM + paclitaxel + etoposide, second round, topical calcitriol, of 32): 32
extent of alopecia (grade) ([1]; CTX + ADM + ARA-C, first round): did not exhibit any signs of alopecia
rats with alopecia grade 0 (number) ([1]; CTX + ADM + ARA-C, second round, topical calcitriol, of 31): 31
rats with alopecia grade 0 (number) ([1]; CTX + ADM + cytarabine (ARA-C), first round, topical calcitriol 2 μg/mL, of 40): 40
extent of alopecia (grade) ([1]; CTX + ADM, first round): did not exhibit any signs of alopecia
rats with alopecia grade 0 (number) ([1]; CTX + ADM, second round, topical calcitriol, of 20): 20
rats with alopecia grade 0 (number) ([1]; CTX + doxorubicin (ADM), first round, topical calcitriol 2 μg/mL, of 40): 40
extent of alopecia (grade) ([1]; CTX + paclitaxel + etoposide, first round): did not exhibit any signs of alopecia
rats with alopecia grade 0 (number) ([1]; CTX + paclitaxel + etoposide, first round, topical calcitriol 2 μg/mL, of 40): 40
rats with alopecia grade 0 (number) ([1]; CTX + paclitaxel + etoposide, second round, topical calcitriol, of 33): 33
extent of alopecia (grade) ([1]; CTX, first round of chemotherapy): did not exhibit any signs of alopecia
rats with alopecia grade 0 (number) ([1]; CTX, first round of chemotherapy, topical calcitriol 2 μg/mL 0.1 mL daily x6, 0 = no alopecia, of 40): 40
rats with alopecia grade 0 (number) ([1]; CTX, second round of chemotherapy, topical calcitriol days 40-45, of 10): 10
rats with alopecia grade 0 (number) ([1]; Doxorubicin (ADM) + paclitaxel + etoposide, first round, topical calcitriol 2 μg/mL, of 40): 40
protection from CIA ([1]; calcitriol 2 μg/mL, each of five chemotherapy regimens, first and second cycles): 100%
protection from CIA ([1]; cyclophosphamide and doxorubicin group, both cycles): 100%
protection from CIA ([1]; cyclophosphamide group, both cycles): 100%
protection from CIA ([1]; cyclophosphamide, doxorubicin and cytarabine group, both cycles): 100%
protection from CIA ([1]; cyclophosphamide, paclitaxel and etoposide group, both cycles): 100%
protection from CIA ([1]; doxorubicin, paclitaxel and etoposide group, both cycles): 100%
protection from cyclophosphamide-induced alopecia [2]: did not develop alopecia
Stratum Corneum calcitriol recovered ([3]; Female Minipigs, 1 μg/mL, mean ± SD): 0.76 ± 1.3 (3) ng/cm^2
Dermis calcitriol recovered ([3]; Female Minipigs, 1 μg/mL, zero = below Lower Limit of Detection): 0 ± 0 (3) ng/mg
Stratum Corneum calcitriol recovered ([3]; Female Minipigs, 3 μg/mL, mean ± SD): 1.12 ± 1.49 (3) ng/cm^2
Dermis calcitriol recovered ([3]; Female Minipigs, 3 μg/mL, zero = below Lower Limit of Detection): 0 ± 0 (3) ng/mg
Epidermis calcitriol recovered [3, 10]: 0.02 ± 0.04 (3) ng/mg
Stratum Corneum calcitriol recovered [3, 10]: 1.65 ± 1.80 (3) ng/cm^2
Dermis calcitriol recovered ([3]; Female Minipigs, 10 μg/mL, zero = below Lower Limit of Detection): 0.0 ± 0.0 (3) ng/mg
Epidermis calcitriol recovered [3, 11]: 0.34 ± 0.24 (3) ng/mg
Stratum Corneum calcitriol recovered [3, 11]: 20.2 ± 11.7 (3) ng/cm^2
Dermis calcitriol recovered ([3]; Female Minipigs, 30 μg/mL, zero = below Lower Limit of Detection): 0.0 ± 0.0 (3) ng/mg
Dermis calcitriol recovered [3, 12]: 0.13 ± 0.04 (1) ng/mg
Epidermis calcitriol recovered [3, 12]: 2.09 ± 1.0 (1) ng/mg
Stratum Corneum calcitriol recovered [3, 12]: 118.1 ± 11.4 (1) ng/cm^2
Epidermis calcitriol recovered ([3]; Male Minipigs, 1 μg/mL, mean ± SD): 0.16 ± 0.28 (3) ng/mg
Stratum Corneum calcitriol recovered ([3]; Male Minipigs, 1 μg/mL, twice daily 7 days, mean ± SD): 56.1 ± 17.4 (3) ng/cm^2
Dermis calcitriol recovered ([3]; Male Minipigs, 1 μg/mL, zero = below Lower Limit of Detection): 0.0 ± 0.0 (3) ng/mg
Epidermis calcitriol recovered [3, 13]: 0.14 ± 0.23 (3) ng/mg
Stratum Corneum calcitriol recovered [3, 13]: 62.4 ± 7.91 (3) ng/cm^2
Dermis calcitriol recovered ([3]; Male Minipigs, 3 μg/mL, zero = below Lower Limit of Detection): 0.0 ± 0.0 (3) ng/mg
Epidermis calcitriol recovered [3, 14]: 0.23 ± 0.20 (3) ng/mg
Stratum Corneum calcitriol recovered [3, 14]: 59.6 ± 14.1 (3) ng/cm^2
Dermis calcitriol recovered ([3]; Male Minipigs, 10 μg/mL, zero = below Lower Limit of Detection): 0.0 ± 0.0 (3) ng/mg
Epidermis calcitriol recovered [3, 15]: 0.38 ± 0.33 (3) ng/mg
Stratum Corneum calcitriol recovered [3, 15]: 54.6 ± 32.5 (3) ng/cm^2
Dermis calcitriol recovered ([3]; Male Minipigs, 30 μg/mL, zero = below Lower Limit of Detection): 0.0 ± 0.0 (3) ng/mg
effect of calcitriol on cell growth [4]: no significant growth promoting or growth inhibiting effects
effect of calcitriol on cytotoxic effect of Doxorubicin [4]: did not appear to appreciably alter
response to doxorubicin, cisplatin, erlotinib after calcitriol exposure [5]: did not alter
SLC1A3 mRNA regulation pattern ([6]; full cell: downregulated at 48 hours): downregulated
SLC1A1 mRNA regulation pattern ([6]; full cell: upregulated at 16 hrs): upregulated
KCNN4 mRNA regulation pattern ([6]; full cell: upregulated at 48 hours): upregulated
KCNB2 mRNA regulation pattern [6]: upregulated at about 24 hours
KCNB2 mRNA regulation pattern ([6]; listed as Vitamin D3): upregulated
DNAJC6 mRNA regulation pattern [7]: Downregulated
HSF4 mRNA regulation pattern [7]: Upregulated at 48 hours
HSPA2 mRNA regulation pattern [7]: Upregulated at 48 hours
HSPB1 mRNA regulation pattern [7]: Down regulated at 48 hours
tumor response [8]: significant tumor regression
dermal irritation [9]: no dermal irritation
skin penetration [9]: excellent epidermal penetration without substantial dermal penetration
